Measurements: PubChem BioAssay (NCI)
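48-hour exposure; five concentrations; linearly interpolated endpoints. Abbreviation: GI50, concentration required for 50% inhibition of growth. The concentration for full growth arrest is given as TGI.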

Experiments:
Assay in all cases: NCI tumour cell line growth inhibition, 48 h
[1] = system: HS 578T breast
[2] = system: M14 melanoma
[3] = system: EKVX NSCLC
[4] = system: OVCAR-3 ovarian
[5] = system: HCT-15 colon
[6] = system: MDA-MB-231 breast
[7] = system: SK-MEL-5 melanoma
[8] = system: U251 CNS
[9] = system: MOLT-4 leukemia
[10] = system: OVCAR-8 ovarian
[11] = system: A498 renal
[12] = system: K-562 leukemia
[13] = system: SW-620 colon
[14] = system: MCF7 breast
[15] = system: NCI/ADR-RES ovarian
[16] = system: MDA-MB-435
[17] = system: NCI-H460 lung
[18] = system: MALME-3M melanoma
[19] = system: UACC-62 melanoma
[20] = system: UO-31 renal
[21] = system: HCC-2998 colon
[22] = system: NCI-H226 lung
[23] = system: DU-145 prostate
[24] = system: T-47D breast
[25] = system: KM12 colon
[26] = system: SF-268 CNS
[27] = system: HOP-62 NSCLC
[28] = system: SNB-19 CNS
[29] = system: SK-MEL-28 melanoma
[30] = system: ACHN renal
[31] = system: OVCAR-4 ovarian
[32] = system: OVCAR-5 ovarian
[33] = system: HCT-116 colon
[34] = system: IGROV1 ovarian
[35] = system: SN12C renal
[36] = system: CAKI-1 renal
[37] = system: SR leukemia
[38] = system: HL-60(TB) leukemia
[39] = system: SNB-75 CNS
[40] = system: 786-0 renal
[41] = system: UACC-257 melanoma
[42] = system: SF-295 CNS
[43] = system: SK-OV-3 ovarian
[44] = system: NCI-H23 lung
[45] = system: A549 NSCLC
[46] = system: SF-539 CNS
[47] = system: LOX IMVI melanoma
[48] = system: COLO 205 colon
[49] = system: RXF 393 renal
[50] = system: PC-3 prostate
[51] = system: HOP-92 NSCLC
[52] = system: HT29 colon
[53] = system: RPMI-8226 leukemia
[54] = system: CCRF-CEM leukemia
[55] = system: SK-MEL-2 melanoma
[56] = system: TK-10 renal
[57] = system: NCI-H522 lung

Question: What does the source list for `COc1cc(NC(C)CCCNC(C)C)c2ncccc2c1OC` (stereo not given)?
Answer: GI50 [1]: 4.74 µM; TGI [1]: 60.7 µM; GI50 [2]: > 100 µM; TGI [2]: > 100 µM; GI50 [3]: 36.4 µM; TGI [3]: > 100 µM; GI50 [4]: 6.47 µM; TGI [4]: 51 µM; GI50 [5]: > 100 µM; TGI [5]: > 100 µM; GI50 [6]: > 100 µM; TGI [6]: > 100 µM; GI50 [7]: > 100 µM; TGI [7]: > 100 µM; GI50 [8]: > 100 µM; TGI [8]: > 100 µM; GI50 [9]: > 100 µM; TGI [9]: > 100 µM; GI50 [10]: > 100 µM; TGI [10]: > 100 µM; GI50 [11]: 0.416 µM; TGI [11]: > 100 µM; GI50 [12]: 32.8 µM; TGI [12]: > 100 µM; GI50 [13]: 97.1 µM; TGI [13]: > 100 µM; GI50 [14]: 29.6 µM; TGI [14]: > 100 µM; GI50 [15]: > 100 µM; TGI [15]: > 100 µM; GI50 [16]: 54.6 µM; TGI [16]: > 100 µM; GI50 [17]: 34.1 µM; TGI [17]: > 100 µM; GI50 [18]: 42.3 µM; TGI [18]: > 100 µM; GI50 [19]: > 100 µM; TGI [19]: > 100 µM; GI50 [20]: 5.29 µM; TGI [20]: > 100 µM; GI50 [21]: > 100 µM; TGI [21]: > 100 µM; GI50 [22]: > 100 µM; TGI [22]: > 100 µM; GI50 [23]: > 100 µM; TGI [23]: > 100 µM; GI50 [24]: 17 µM; TGI [24]: > 100 µM; GI50 [25]: > 100 µM; TGI [25]: > 100 µM; GI50 [26]: > 100 µM; TGI [26]: > 100 µM; GI50 [27]: > 100 µM; TGI [27]: > 100 µM; GI50 [28]: > 100 µM; TGI [28]: > 100 µM; GI50 [29]: > 100 µM; TGI [29]: > 100 µM; GI50 [30]: > 100 µM; TGI [30]: > 100 µM; GI50 [31]: 4.2 µM; TGI [31]: 53.3 µM; GI50 [32]: > 100 µM; TGI [32]: > 100 µM; GI50 [33]: 27.8 µM; TGI [33]: > 100 µM; GI50 [34]: 13.4 µM; TGI [34]: 44.3 µM; GI50 [35]: > 100 µM; TGI [35]: > 100 µM; GI50 [36]: > 100 µM; TGI [36]: > 100 µM; GI50 [37]: 70.8 µM; TGI [37]: > 100 µM; GI50 [38]: 14.2 µM; TGI [38]: 72.4 µM; GI50 [39]: 20.5 µM; TGI [39]: > 100 µM; GI50 [40]: > 100 µM; TGI [40]: > 100 µM; GI50 [41]: > 100 µM; TGI [41]: > 100 µM; GI50 [42]: > 100 µM; TGI [42]: > 100 µM; GI50 [43]: > 100 µM; TGI [43]: > 100 µM; GI50 [44]: > 100 µM; TGI [44]: > 100 µM; GI50 [45]: > 100 µM; TGI [45]: > 100 µM; GI50 [46]: > 100 µM; TGI [46]: > 100 µM; GI50 [47]: > 100 µM; TGI [47]: > 100 µM; GI50 [48]: 14 µM; TGI [48]: 39.1 µM; GI50 [49]: > 100 µM; TGI [49]: > 100 µM

Question: What does the source list for `CC/C(Cc1ccccc1)=C(/c1ccc(O)cc1)c1ccc(OCCN2CCCC2)cc1`?
Answer: GI50 [1]: 1.86 µM; TGI [1]: 5.83 µM; GI50 [2]: 1.8 µM; TGI [2]: 3.64 µM; GI50 [3]: 1.44 µM; TGI [3]: 2.89 µM; GI50 [50]: 1.79 µM; TGI [50]: 3.25 µM; GI50 [51]: 1.61 µM; TGI [51]: 3.26 µM; GI50 [52]: 1.72 µM; TGI [52]: 3.78 µM; GI50 [4]: 1.82 µM; TGI [4]: 3.46 µM; GI50 [5]: 1.51 µM; TGI [5]: 3.08 µM; GI50 [6]: 2.1 µM; TGI [6]: 4.05 µM; GI50 [7]: 1.7 µM; TGI [7]: 3.08 µM; GI50 [8]: 1.69 µM; TGI [8]: 3.19 µM; GI50 [9]: 1.57 µM; TGI [9]: 3.63 µM; GI50 [10]: 2.39 µM; TGI [10]: 5.39 µM; GI50 [11]: 1.27 µM; TGI [11]: 2.72 µM; GI50 [53]: 2.1 µM; TGI [53]: 4.67 µM; GI50 [54]: 1.83 µM; TGI [54]: 4.16 µM; GI50 [12]: 1.2 µM; TGI [12]: 3.41 µM; GI50 [13]: 1.84 µM; TGI [13]: 3.63 µM; GI50 [55]: 2.04 µM; TGI [55]: 3.84 µM; GI50 [14]: 0.0211 µM; TGI [14]: 2.22 µM; GI50 [15]: 2.1 µM; TGI [15]: 5.44 µM; GI50 [16]: 1.67 µM; TGI [16]: 3.23 µM; GI50 [17]: 1.72 µM; TGI [17]: 3.48 µM; GI50 [19]: 2.03 µM; TGI [19]: 4.12 µM; GI50 [20]: 1.43 µM; TGI [20]: 2.95 µM; GI50 [21]: 1.54 µM; TGI [21]: 2.98 µM; GI50 [22]: 1.77 µM; TGI [22]: 3.58 µM; GI50 [23]: 1.94 µM; TGI [23]: 3.88 µM; GI50 [24]: 1.26 µM; TGI [24]: 3.32 µM; GI50 [25]: 1.94 µM; TGI [25]: 3.74 µM; GI50 [26]: 1.61 µM; TGI [26]: 3.35 µM; GI50 [27]: 1.9 µM; TGI [27]: 3.58 µM; GI50 [56]: 1.75 µM; TGI [56]: 3.34 µM; GI50 [28]: 1.97 µM; TGI [28]: 3.93 µM; GI50 [29]: 1.72 µM; TGI [29]: 3.42 µM; GI50 [30]: 1.83 µM; TGI [30]: 3.39 µM; GI50 [31]: 2.08 µM; TGI [31]: 5.18 µM; GI50 [32]: 1.86 µM; TGI [32]: 3.93 µM; GI50 [33]: 1.83 µM; TGI [33]: 3.3 µM; GI50 [34]: 1.95 µM; TGI [34]: 4.5 µM; GI50 [35]: 1.88 µM; TGI [35]: 3.88 µM; GI50 [36]: 1.65 µM; TGI [36]: 3.52 µM; GI50 [37]: 1.35 µM; TGI [37]: 3.2 µM; GI50 [57]: 1.89 µM; TGI [57]: 3.67 µM; GI50 [38]: 1.9 µM; TGI [38]: 3.84 µM; GI50 [39]: 1.31 µM; TGI [39]: 2.98 µM; GI50 [40]: 1.72 µM; TGI [40]: 3.22 µM; GI50 [41]: 2.14 µM; TGI [41]: 3.89 µM; GI50 [42]: 1.81 µM; TGI [42]: 3.46 µM; GI50 [43]: 1.74 µM; TGI [43]: 3.32 µM; GI50 [44]: 1.72 µM; TGI [44]: 3.53 µM; GI50 [45]: 2.05 µM; TGI [45]: 3.82 µM; GI50 [46]: 1.67 µM; TGI [46]: 3.21 µM; GI50 [47]: 1.62 µM; TGI [47]: 3.05 µM; GI50 [48]: 1.76 µM; TGI [48]: 3.39 µM; GI50 [49]: 1.56 µM; TGI [49]: 3.13 µM
